Earlier results in patent US20090105632A1 (priority 2007, published 2009).

Experiments:
[1] = 10 mM citrate buffer at pH 5
[2] = oral route, metabolized by the liver
Parkinson's disease = settings: lisuride administration at about 1.1 mg/day

In the case of CCN(CC)C(=O)N[C@H]1C=C2c3cccc4[nH]cc(c34)C[C@H]2N(C)C1 [lisuride, N′-[(8α)-9,10-didehydro-6-methylergolin-8-yl]-N,N-diethylurea], the solubility [1] is given as “about 1.8 mg/ml”, the pKa is given as “about 8” and the bioavailability [2] is given as “about 25%”. The antiparkinsonian response (Parkinson's disease) was “equal to that achieved with doses of levopoda monotherapy of 668 mg/day”.
